# According to patent US9120727B2, “Process for the preparation of pleuromutilins” (NABRIVA THERAPEUTICS AG, priority 2010, dated 2015):
# Where a name gives a salt, the structure may show the parent alone.
# What was measured:
# [1] = test system: Streptococcus pneumoniae ATCC49619; assay: Minimum inhibitory concentration (MIC) in accordance with CLSI recommendations; type: cell-based
# Protocol: (§1) The antimicrobial, e.g. antibacterial activity of 14-O-{[(4-amino-2-hydroxy-cyclohexyl)-sulfanyl]-acetyl}-mutilins was outlined in WO2008/113089. […] The minimum inhibitory concentration (MIC) was determined in accordance with CLSI recommendations.
# [2] = test system: Staphylococcus aureus ATCC49951; assay: as above; type: cell-based
# Protocol: as §1
# [3] = Solubility of crystalline salts in water, aqueous vehicles and biorelevant media; type: physicochemical; conditions: 0.9% NaCl solution, FaSSIF and FeSSIF
# [4] = Comparative stability of crystalline and amorphous salts of compound I, stored at 60° C., HPLC; type: physicochemical
# Description: In the following TABLE 4 comparative stability data of the corresponding crystalline and amorphous salts of compound I are shown. [table]
# [5] = 28 d at 60° C., * sample did not fully dissolve in water, suspension analyzed
SMILES,MIC [1],MIC [2],solubility [3],"Area % of 14-O-{[(1R,2R,4R)-4-amino-2-hydroxy-cyclohexylsulfanyl]-acetyl}-mutilin (compound I) by HPLC stored at 60° C. [4, 5]","Area % of 14-O-{[(1R,2R,4R)-4-amino-2-hydroxy-cyclohexylsulfanyl]-acetyl}-mutilin (compound I) by HPLC stored at 60° C. ([4]; Initial)"
"C=C[C@]1(C)C[C@@H](OC(=O)CS[C@@H]2CC[C@@H](N)C[C@H]2O)[C@]2(C)C(C)CC[C@]3(CCC(=O)[C@H]32)[C@@H](C)[C@@H]1O (stereo partly drawn) [compound of formula I, 14-O-{[(1R,2R,4R)-4-amino-2-hydroxy-cyclohexylsulfanyl]-acetyl}-mutilin]",< 0.4 µg/mL,< 0.4 µg/mL,–,–,–
"C=C[C@]1(C)C[C@@H](OC(=O)CS[C@@H]2CC[C@@H](N)C[C@H]2O)[C@]2(C)C(C)CC[C@]3(CCC(=O)[C@H]32)[C@@H](C)[C@@H]1O (stereo partly drawn) [L-Lactate crystalline, 14-O-{[(1R,2R,4R)-4-Amino-2-hydroxy-cyclohexylsulfanyl]-acetyl}-mutilin L-lactate, crystalline Form 1]",–,–,surprisingly high,98.3 Area %,99.4 Area %
"C=C[C@]1(C)C[C@@H](OC(=O)CS[C@@H]2CC[C@@H](N)C[C@H]2O)[C@]2(C)C(C)CC[C@]3(CCC(=O)[C@H]32)[C@@H](C)[C@@H]1O (stereo partly drawn) [Acetate (Form B) crystalline, 14-O-{[(1R,2R,4R)-4-Amino-2-hydroxy-cyclohexyl-sulfanyl]-acetyl}-mutilin acetate, crystalline Form B]",–,–,–,98.9 Area %,99.5 Area %
"C=C[C@]1(C)C[C@@H](OC(=O)CS[C@@H]2CC[C@@H](N)C[C@H]2O)[C@]2(C)C(C)CC[C@]3(CCC(=O)[C@H]32)[C@@H](C)[C@@H]1O (stereo partly drawn) [Hydrogen maleate crystalline, 14-O-{[(1R,2R,4R)-4-Amino-2-hydroxy-cyclohexylsulfanyl]-acetyl}-mutilin hydrogenmaleate, crystalline Form 1]",–,–,surprisingly high,–,–
